In ChEMBL document CHEMBL3244003, “Synthesis and biological activity of several amino analogues of thymidine” (1978):
Active and inactive are the calls of the source. No cut-off for these calls is given here.

What was measured:
L1210 [1] = experiment: Antineoplastic activity against mouse L1210 cells at 400 uM; assay type: functional, cell-based
CCRF S-180 [2] = experiment: Antineoplastic activity against mouse S180 cells at 400 uM; assay type: functional, cell-based
Human alphaherpesvirus 1 = experiment: Antiviral activity against HSV1 at 400 uM; assay type: functional
L1210 [3] = experiment: Antineoplastic activity against mouse L1210 cells at 3 uM; assay type: functional
L1210 [4] = experiment: Antineoplastic activity against mouse L1210 cells at 27 uM in presence of thymidine relative to compound alone; assay type: functional
L1210 [5] = experiment: Antineoplastic activity against mouse L1210 cells at 5 uM in presence of deoxyuridine relative to compound alone; assay type: functional
L1210 [6] = experiment: Antineoplastic activity against mouse L1210 cells at 1 uM in presence of deoxycytidine relative to compound alone; assay type: functional
L1210 [7] = experiment: Antineoplastic activity against mouse L1210 cells at 5 uM in presence of cytidine relative to compound alone; assay type: functional
L1210 [8] = experiment: Antineoplastic activity against mouse L1210 cells at 3 uM in presence of thymidine relative to compound alone; assay type: functional
CCRF S-180 [9] = experiment: Antineoplastic activity against mouse S180 cells at 25 uM; assay type: functional
L1210 [10] = experiment: Antineoplastic activity against mouse L1210 cells at 1 uM in presence of cytidine relative to compound alone; assay type: functional
L1210 [11] = experiment: Antineoplastic activity against mouse L1210 cells at 250 uM; assay type: functional
L1210 [12] = experiment: Antineoplastic activity against mouse L1210 cells at 25 uM; assay type: functional
CCRF S-180 [13] = experiment: Antineoplastic activity against mouse S180 cells at 50 uM; assay type: functional
L1210 [14] = experiment: Antineoplastic activity against mouse L1210 cells at 1 uM in presence of deoxyadenosine relative to compound alone; assay type: functional
L1210 [15] = experiment: Antineoplastic activity against mouse L1210 cells at 5 uM in presence of deoxyguanosine relative to compound alone; assay type: functional
L1210 [16] = experiment: Antineoplastic activity against mouse L1210 cells at 25 uM in presence of deoxyadenosine relative to compound alone; assay type: functional
L1210 [17] = experiment: Antineoplastic activity against mouse L1210 cells at 25 uM in presence of deoxyguanosine relative to compound alone; assay type: functional
L1210 [18] = experiment: Antineoplastic activity against mouse L1210 cells at 5 uM in presence of deoxyadenosine relative to compound alone; assay type: functional
L1210 [19] = experiment: Antineoplastic activity against mouse L1210 cells at 9 uM in presence of thymidine relative to compound alone; assay type: functional
CCRF S-180 [20] = experiment: Antineoplastic activity against mouse S180 cells at 250 uM; assay type: functional
L1210 [21] = experiment: Antineoplastic activity against mouse L1210 cells at 1 uM in presence of uridine relative to compound alone; assay type: functional
CCRF S-180 [22] = experiment: Antineoplastic activity against mouse S180 cells at 1 uM; assay type: functional
L1210 [23] = experiment: Antineoplastic activity against mouse L1210 cells at 25 uM in presence of cytidine relative to compound alone; assay type: functional
L1210 [24] = experiment: Antineoplastic activity against mouse L1210 cells at 5 uM in presence of uridine relative to compound alone; assay type: functional
L1210 [25] = experiment: Antineoplastic activity against mouse L1210 cells at 500 uM; assay type: functional
L1210 [26] = experiment: Antineoplastic activity against mouse L1210 cells at 1 uM in presence of thymidine relative to compound alone; assay type: functional
L1210 [27] = experiment: Antineoplastic activity against mouse L1210 cells at 15 uM; assay type: functional
L1210 [28] = experiment: Antineoplastic activity against mouse L1210 cells at 1 uM in presence of deoxyuridine relative to compound alone; assay type: functional
L1210 [29] = experiment: Antineoplastic activity against mouse L1210 cells at 50 uM; assay type: functional
L1210 [30] = experiment: Antineoplastic activity against mouse L1210 cells at 5 uM in presence of deoxycytidine relative to compound alone; assay type: functional
L1210 [31] = experiment: Antineoplastic activity against mouse L1210 cells at 25 uM in presence of uridine relative to compound alone; assay type: functional
CCRF S-180 [32] = experiment: Antineoplastic activity against mouse S180 cells at 5 uM; assay type: functional
L1210 [33] = experiment: Antineoplastic activity against mouse L1210 cells at 0.5 uM; assay type: functional
L1210 [34] = experiment: Antineoplastic activity against mouse L1210 cells at 25 uM in presence of deoxyuridine relative to compound alone; assay type: functional
L1210 [35] = experiment: Antineoplastic activity against mouse L1210 cells at 1 uM in presence of deoxyguanosine relative to compound alone; assay type: functional
L1210 [36] = experiment: Antineoplastic activity against mouse L1210 cells at 25 uM in presence of deoxycytidine relative to compound alone; assay type: functional
L1210 [37] = experiment: Antineoplastic activity against mouse L1210 cells at 1 uM; assay type: functional

With `Cc1cn([C@H]2C[C@H](O)[C@@H](CN)O2)c(=O)[nH]c1=O` the inhibition (L1210 [1]) was “inactive”, the inhibition (CCRF S-180 [2]) was “inactive” and the inhibition at 400 µM (Human alphaherpesvirus 1) was 98%.

`Cc1cn([C@H]2C[C@H](N)[C@@H](CN)O2)c(=O)[nH]c1=O` was tested, and the inhibition (L1210 [1]) was “inactive”, the inhibition (CCRF S-180 [2]) was “inactive” and the inhibition (Human alphaherpesvirus 1) was “inactive”.

`Cc1cn([C@H]2C[C@H](N)[C@@H](CO)O2)c(=O)[nH]c1=O` [3-AMINO- 3-DEOXYTHYMIDINE] was tested, and the inhibition at 3 µM (L1210 [3]) was 87%, the inhibition at 27 µM (L1210 [4]) was 22.4% and the inhibition at 5 µM (L1210 [5]) was 74%. The inhibition at 1 µM (L1210 [6]) was 80%, the inhibition at 5 µM (L1210 [7]) was 100% and the inhibition at 3 µM (L1210 [8]) was 55.2%. For the same compound, the inhibition at 25 µM (CCRF S-180 [9]) was 68%, the inhibition at 1 µM (L1210 [10]) was 100% and the inhibition at 250 µM (L1210 [11]) was 93%. The inhibition at 25 µM (L1210 [12]) was 88%, the inhibition at 50 µM (CCRF S-180 [13]) was 66% and the inhibition at 1 µM (L1210 [14]) was 89%. It also gave an inhibition at 5 µM (L1210 [15]) of 86%, an inhibition at 25 µM (L1210 [16]) of 93% and an inhibition at 25 µM (L1210 [17]) of 102%. The inhibition at 5 µM (L1210 [18]) was 89%, the inhibition at 400 µM (Human alphaherpesvirus 1) was 62% and the inhibition at 9 µM (L1210 [19]) was 38.1%. The inhibition at 250 µM (CCRF S-180 [20]) was 73%, the inhibition at 1 µM (L1210 [21]) was 100% and the inhibition at 1 µM (CCRF S-180 [22]) was 37%. The inhibition at 25 µM (L1210 [23]) was 99%, the inhibition at 5 µM (L1210 [24]) was 99% and the inhibition at 500 µM (L1210 [25]) was 95%. It also gave an inhibition at 1 µM (L1210 [26]) of 75.2%, an inhibition at 15 µM (L1210 [27]) of 91% and an inhibition at 1 µM (L1210 [28]) of 88%. For the same compound, the inhibition at 50 µM (L1210 [29]) was 92%, the inhibition at 5 µM (L1210 [30]) was 61% and the inhibition at 25 µM (L1210 [31]) was 95%. It also gave an inhibition at 5 µM (CCRF S-180 [32]) of 55%, an inhibition at 0.5 µM (L1210 [33]) of 43% and an inhibition at 25 µM (L1210 [34]) of 48%. It also gave an inhibition at 1 µM (L1210 [35]) of 87%, an inhibition at 25 µM (L1210 [36]) of 28% and an inhibition at 1 µM (L1210 [37]) of 58%.
